Measured values taken from PMC12239973 (Science Advances, 2025).
“Also recorded” adds a separate entry of the source. Like-named read-outs stand apart in the source and are kept apart here. Values belong to the molecule of their own block, whether it stands above or below them.

Key:
human C3 deposition = experiment: C3 deposition on nanoparticles in human serum, C3 dot-blot immunoassay; assay type: biochemical; conditions: for IC50: read-out: C3, IC50, healthy donor serum
C3 [1] = experiment: C3 opsonization of SPIO NWs in rat serum in vitro; assay type: biochemical, Sprague-Dawley rats; conditions: 100 μM
human C5a release = experiment: C5a release in the fluid phase of human serum with nanoparticles, ELISA; assay type: biochemical; conditions: for inhibition of C5a release: 100 μM; for IC50: read-out: C5a, IC50
C3 [2] = experiment: C3 opsonization of SPIO NWs in dog sera in vitro; assay type: biochemical; conditions: 10 μM, five breeds
C3 [3] = experiment: C3 opsonization of SPIO NWs in mouse serum in vitro; assay type: biochemical, BALB/c mice
C3d = C3d deposition on PLD in plasma of donors with high anti-PEG titers; assay type: biochemical, human; conditions: two donors with high anti-PEG titers; EDTA 10 mM; EGTA/Mg2+ 10 mM; sutimlimab 200 μg/ml; iptacopan 10 μM
C3 [4] = assay type: biochemical, human; conditions: for inhibition of C3 opsonization of PLD, in words: two donors with top 10th percentile anti-PEG IgG/IgM, EGTA/Mg2+ 10 mM
mouse C3 = experiment: In vivo C3 opsonization of SPIO NWs in mice; set-up: species or system BALB/c mice; conditions: IV iptacopan, 5 min after the injection
granulocytes = experiment: Blood leukocyte uptake of bolus-injected SPIO NWs in dogs; assay type: in vivo; conditions: Beagle dogs; iptacopan 0.43 mg/kg IV coinjected with SPIO NWs 6.6 mg/kg; 30 and 60 min
blood leukocytes = experiment: Blood leukocyte uptake of bolus-injected SPIO NWs in rats; assay type: in vivo, Sprague-Dawley rats
[5] = tested on: granulocytes, monocytes, lymphocytes; experiment: Blood leukocyte uptake of bolus-injected SPIO NWs in mice; assay type: in vivo, BALB/c mice
dog C3 = experiment: In vivo C3 opsonization of SPIO NWs in dogs; conditions: Beagle dogs; iptacopan 0.43 mg/kg IV; 30 min postinjection
Beagle dogs = experiment: Blood pressure in anesthetized dogs after bolus injection of SPIO NWs; assay type: in vivo; conditions: iptacopan IV 0.4285 mg/kg
rat C3 = experiment: In vivo C3 opsonization of SPIO NWs in rats; set-up: species or system Sprague-Dawley rats; conditions: high dose iptacopan 0.99 mg/kg, 60 min postinjection
Sprague-Dawley rats = experiment: Rearing behavior of rats after bolus injection of SPIO NWs; assay type: in vivo
[6] = tested on: granulocytes and monocytes; assay type: cell-based, human; conditions: CR2-CR1 10 nM, iptacopan 20 μM; for efficacy on uptake across donors, in words: liposomes and LNPs, five donors
C3 convertases = conditions: mice and dogs; cited from earlier work
C4d = C4d deposition on PLD in plasma of donors with high anti-PEG titers; assay type: biochemical, human; conditions: two donors with high anti-PEG titers; EGTA/Mg2+ 10 mM; sutimlimab 200 μg/ml
[7] = EDTA 10 mM, sutimlimab 200 μg/ml, iptacopan 10 μM

IC50 (human C5a release; CLIO NWs, human serum): 6.93 nM | IC50 (human C5a release; Onivyde, human serum): 2580 nM | IC50 (human C5a release; SPIO NWs, human serum): 6.97 nM | IC50 (human C5a release; mRNA LNPs, donor F38 (table line matched to Fig. 2C)): 1290 nM | IC50 (human C5a release; mRNA LNPs, donor F46 (table line matched to Fig. 2C)): 7980 nM | IC50 (human C5a release; mRNA LNPs, donor M61 (table line matched to Fig. 2C)): 71.2 nM
Molecule: CC(=O)c1nn(CC(=O)N2C[C@H](F)C[C@H]2C(=O)Nc2cccc(Br)n2)c2ccc(-c3cnc(C)nc3)cc12 [Danicopan, danicopan]
inhibition of C3 deposition (human C3 deposition; PLD, inhibitor at 100 μM, human serum): less than 50% | IC50 (human C3 deposition; CLIO NWs): 10800 nM | IC50 (human C3 deposition; Onivyde): 28100 nM | IC50 (human C3 deposition; SPIO NWs): 417 nM | inhibition of C3 (C3 [1]): less than 50% | inhibition of C5a release (human C5a release; mRNA LNPs, donor F46): less than 60% | inhibition of C5a release (human C5a release; mRNA LNPs, donors F38 and M61): completely inhibited | C5a IC50, in words (human C5a release; mRNA LNPs, sera from three healthy donors): low micromolar | inhibition of C3 opsonization in dog sera (C3 [2]): considerably less effective | inhibition in mouse serum, in words (C3 [3]): poor inhibition

Molecule: O=C(O)CN(CCN(CC(=O)O)CC(=O)O)CC(=O)O [EDTA]
inhibition of C3d deposition on PLD, in words (C3d): full inhibition | C3 on PLD blocked, on average (C3 [4]; lepirudin plasma, 10 donors, CR2-CR1 10 nM, EDTA 10 mM): ~67% | inhibition of C3 opsonization of PLD, in words (C3 [4]; [7]): only partially inhibited

Molecule: CCO[C@H]1CCN(Cc2c(OC)cc(C)c3[nH]ccc23)[C@H](c2ccc(C(=O)O)cc2)C1 [Iptacopan, iptacopan]
C3 opsonization of NWs retrieved from plasma (mouse C3): significantly decreased | number of magnetic granulocytes (granulocytes): significantly reduced | inhibition of C3d deposition on PLD, in words (C3d): only partial activity | inhibition of uptake by granulocytes (blood leukocytes; high-dose iptacopan 0.99 mg/kg, 60 min): significant inhibition | uptake of SPIO NWs by blood leukocytes (blood leukocytes; iptacopan IV 0.21 mg/kg (low dose) and 0.99 mg/kg (high dose) with SPIO NWs 6.6 mg/kg, 60 min postinjection): inhibited uptake | iptacopan administered intraperitoneally compared with IV ([5]; IP before SPIO NWs): equally effective | inhibition of uptake of SPIO NWs by monocytes and lymphocytes ([5]; iptacopan with NWs 10 mg Fe/kg): partial inhibition | inhibition of C3 opsonization of PLD, in words (C3 [4]; [7]): marginally effective | inhibition of C3 opsonization of PLD, in words (C3 [4]; EDTA 10 mM, sutimlimab 200 μg/ml, iptacopan 10 μM, listed as iptacopan): minimal inhibition | dog C3 opsonization in the blood (dog C3): significantly decreased | systolic and diastolic pressure after coinjection with SPIO NWs (Beagle dogs): prevents the drop in blood pressure; also recorded: restored | rat C3 opsonization of NWs blocked (rat C3): more than 90% | inhibition of C3 opsonization in dog sera (C3 [2]): significant inhibition | rearings after coinjection with NWs (Sprague-Dawley rats; low or high dose of iptacopan): significant increase in rearings; also recorded: significantly normalized rearing behavior | efficacy on uptake across donors, in words [6]: effective in some donors | efficacy on uptake across donors, in words ([6]; listed as iptacopan): effective in three of five donors | reduction of SPIO NWs uptake (number of magnetic cells) ([6]; the one donor with measurable uptake): ~ 60%

Molecule: CR1: human complement receptor 1 (soluble CR1 therapeutics)
efficacy in animal species (C3 convertases): not effective

Molecule: EGTA/Mg^2+
inhibition of C4d deposition on PLD, in words (C4d): inhibited | inhibition of C3d deposition on PLD, in words (C3d): full inhibition | inhibition of C3 opsonization of PLD, in words (C3 [4]; [7]): strong inhibition

Molecule: PMX53
rearing behavior after coinjection with NWs (Sprague-Dawley rats; PMX53 1 mg/kg IV, or 3 mg/kg IP + 1 mg/kg IV): did not restore; also recorded: not significantly increased

B1: Sutimlimab: monoclonal antibody that binds C1s; classical pathway inhibitor (antibody, chains of the INN, looked up, V domains shown)
VH: EVQLVESGGGLVKPGGSLRLSCAASGFTFSNYAMSWVRQAPGKGLEWVATISSGGSHTYYLDSVKGRFTISRDNSKNTLYLQMNSLRAEDTALYYCARLFTGYAMDYWGQGTLVTVSS
VL: QIVLTQSPATLSLSPGERATMSCTASSSVSSSYLHWYQQKPGKAPKLWIYSTSNLASGVPSRFSGSGSGTDYTLTISSLQPEDFATYYCHQYYRLPPITFGQGTKLEIK
inhibition of C4d deposition on PLD, in words (C4d): does not inhibit | inhibition of C3d deposition on PLD, in words (C3d): only partial activity | inhibition of C3 deposition on PLD, in words (C3 [4]; lepirudin plasma, 10 donors, sutimlimab 200 μg/ml, iptacopan 10 μM): minimally effective | inhibition of C3 opsonization of PLD, in words (C3 [4]; [7]): marginal effectiveness; also recorded: minimal inhibition
